Data on 2 compounds can be found in PMC11333205, “Pyridylpiperazine-based carbodithioates as urease inhibitors: synthesis and biological evaluation” (Frontiers in Chemistry, 2024).

Where two headings read alike, the source gives them in different places.

The target in experiment [1] is T1, urease (Canavalia ensiformis, UniProt P07374). Particulars: read-out: IC50 (urease); Figure 1; ref Khan et al., 2024; cited from earlier work.
Experiment [2] has as its target T1, urease. The experiment in a line: Kinetic study (Lineweaver–Burk / Michaelis–Menten) of urease inhibition. In kind it is biochemical. Particulars: Lineweaver–Burk plots; 5j at 0, 2.55, 5.11, 7.65 μM. The text has this: By using Lineweaver–Burk graphs, we determined the mechanism of action of the leading compound 5j against urease. We evaluated the effect of the inhibitor on K m and V max using reciprocal 1/S and 1/V of the product concentration and calculated the inhibition type. The slope K m /V max of each line was schemed against different concentrations of the substrate and inhibitor. In kinetic studies of the potent compound, different concentrations of the compound and substrate were used. Different concentrations of 1 mM 5j were 0, 2.55, 5.11, and 7.65 μM, and different concentrations of the substrate were 0, 25, 50, 100, and 150 mM.
The type of inhibitory action was determined by using […] different concentrations of the substrate (0, 2.5, 5, 10, and 15 mM) in the absence and presence of different concentrations of inhibitor 5j (0, 2.55, 5.11, and 7.65 μM).

Experiment [3] deals with T1, urease. The experiment in a line: biochemical. Format: biochemical. As to the method:
The inhibitory potential of the compounds was assessed using a slightly modified indophenol method ([Hina et al., 2023]). In 96-well plates, a mixture consisting of 50 µL urease, 30 µL buffer solution (phosphate buffer, sodium salicylate, sodium nitroprusside, and EDTA, pH 8.0), 10 µL urea substrate (100 mM), and 10 µL of the test compound (1 mM) was subjected to pre-incubation for 10 min at room temperature. Subsequently, an alkali reagent (70 µL) was promptly introduced into each well. Then, 30 min later, the absorbance at 630 nm for all samples was measured using a BioTek ELx800 instrument from BioTek Instruments, Inc., United States. The data were collected for all experiments performed in triplicate, and the percentage of inhibitory activities was assessed utilizing the following formula: Percentage of inhibition=100 – Absorbance of compound/Absorbance of control × 100.

T1 sequence (P07374 whole entry, looked up): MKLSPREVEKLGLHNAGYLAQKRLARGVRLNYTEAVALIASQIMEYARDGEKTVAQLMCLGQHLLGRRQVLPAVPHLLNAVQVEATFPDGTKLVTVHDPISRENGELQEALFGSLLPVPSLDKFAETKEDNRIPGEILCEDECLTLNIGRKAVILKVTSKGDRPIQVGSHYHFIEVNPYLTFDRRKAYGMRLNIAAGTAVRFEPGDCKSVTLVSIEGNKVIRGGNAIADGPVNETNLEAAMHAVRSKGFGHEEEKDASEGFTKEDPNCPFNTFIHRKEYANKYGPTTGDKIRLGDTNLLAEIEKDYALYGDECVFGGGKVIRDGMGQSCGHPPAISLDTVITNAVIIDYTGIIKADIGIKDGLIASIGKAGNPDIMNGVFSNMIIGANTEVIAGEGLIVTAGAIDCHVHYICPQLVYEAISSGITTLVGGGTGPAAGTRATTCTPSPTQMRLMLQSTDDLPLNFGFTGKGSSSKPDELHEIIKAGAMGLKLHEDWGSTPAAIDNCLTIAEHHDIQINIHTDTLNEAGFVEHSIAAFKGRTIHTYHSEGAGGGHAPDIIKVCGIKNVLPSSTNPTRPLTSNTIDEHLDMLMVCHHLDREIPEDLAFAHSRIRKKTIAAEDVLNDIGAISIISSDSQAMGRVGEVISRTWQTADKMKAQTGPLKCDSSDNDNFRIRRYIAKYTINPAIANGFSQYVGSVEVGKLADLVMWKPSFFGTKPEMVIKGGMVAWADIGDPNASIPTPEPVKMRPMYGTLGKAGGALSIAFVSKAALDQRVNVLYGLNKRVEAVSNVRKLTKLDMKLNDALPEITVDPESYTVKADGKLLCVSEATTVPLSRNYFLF

The IC50 is the concentration that inhibits the measured activity by half. On to `CN(Cc1ccccc1)C(=S)SCc1ccccc1` [S-benzyl substituted carbodithioate], for which, on urease [1], the 50% inhibitory concentration (IC50) was 0.75 ± 0.04 µM.

With `Cc1ccccc1NC(=O)CSC(=S)N1CCN(c2ncccc2[N+](=O)[O-])CC1` [Compound 5j, 2-Oxo-2-(o-tolylamino)ethyl 4-(3-nitropyridin-2-yl)piperazine-1-carbodithioate], at urease [2], the “type of inhibition against urease” value is on record as “mixed type of inhibition”. In addition, the 50% inhibitory concentration (IC50) at urease [3] amounted to 5.16 ± 2.68 µM.
